In US20080200557A1, “Method for Inhibiting Lipid Peroxidation” (CARITAS ST. ELIZABETH HOSPITAL OF BOSTON, INC., priority 2004, published 2008):

Legend:
[1] = test system: lipid peroxidation induced by lipopolysaccharide (LPS) in mice brain tissues; assay: LPS-induced lipid peroxidation (TBARS/MDA) in mouse brain tissues; type: biochemical; conditions: C57BI/6J mouse brain
[2] = test system: lipid peroxidation induced by FeCl2 in mice brain tissues; assay: FeCl2-induced lipid peroxidation (TBARS/MDA) in mouse brain tissues; type: biochemical, mice C57BI/J6; conditions: FeCl2 1 mM
Procedure: The effect of N-substituted dopamine derivatives on FeCl2-induced oxidative damage was evaluated in mice C57BI/J6 brain tissues.
Brain tissues from C57BI/J6 […] were homogenized in 20 mM pH 7.4 Tris buffer. The homogenates were then incubated (1 hr) in solvent alone (control) or in solvent+FeCl2, N-acetyldopamine+FeCl2, N-methyldopamine (deoxyepinephrine)+FeCl2, 3-methoxyldopamine+FeCl2, and 4-methoxydopamine (3-hydroxy-4-methoxy phenethylamine HCl)+FeCl2. TBARS were added, and homogenates were incubated for 20 min. in a boiling water bath. After cooling, the absorbance was measured spectrophotometrically at 532 nm. TBARS concentrations were derived from a standard curve of MDA (Oxis International, Portland, Oreg.). Protein was determined by Lowry method (Sigma Chem. Co., St. Louis, Mo.). Results are expressed as mean +S.D. (n=6). Data was treated by one-way ANOVA and Student's t-test

[3] = test system: lipid peroxidation induced by lipopolysaccharide (LPS) in rat brain tissues; assay: LPS-induced lipid peroxidation (TBARS/MDA) in rat brain homogenates; type: biochemical, Fisher 344N male rats; conditions: rat brain homogenate, LPS 400 μg/ml
Procedure: N-acetyldopamine, melatonin, 2-thiobarbituric acid, and LPS (Escherichia coli 0127:B8) were purchased from Sigma Chemical Co. (St. Louis, Mo.). The formation of thiobarbituric acid reactive substances (TBARS) was used as index of induced oxidative damage to lipid membranes. Lipid peroxidation was induced with LPS (400 μg/ml).
Brain tissues from Fisher 344N male rats were homogenized in 20 mM pH 7.4 Tris buffer. The homogenates were then incubated (1 hr) in solvent alone (control) or in solvent+LPS (400 μg/ml), N-acetyldopamine+LPS, NAS+LPS, melatonin+LPS, and N-acetyldopamine+NAS+LPS (for concentrations of N-acetyldopamine, NAS and melatonin, see Results). TBARS were added, and homogenates were incubated for 20 min. in a boiling water bath. After cooling, the absorbance was measured spectrophotometrically at 532 nm. TBARS concentrations were derived from a standard curve of MDA (Oxis International, Portland, Oreg.). Protein was determined by Lowry method (Sigma Chem. Co., St. Louis, Mo.). Results are expressed as mean+S.D. (n=6). Data was treated by one-way ANOVA and Student's t-test.

[4] = test system: toxic effect of LPS; conditions: laboratory animals; cited from earlier work
[5] = test system: septic shock; conditions: patients suffering from septic shock; cited from earlier work
[6] = test system: LPS-induced hypotensive shock; conditions: rats; cited from earlier work
[7] = test system: LPS lethal effect; conditions: mice; cited from earlier work

## COc1cc(CCN)ccc1O [3-methoxydopamine, 4-hydroxyl-3-methoxy phenethylamine]
[1]; FIGS. 6-7
  effect on LPS-induced lipid peroxidation (MDA formation), in words: inhibited LPS-induced formation of MDA in C57BI/6J mouse brain in a dose-dependent manner
[1]; at 200μ, FIG. 6
  inhibition of LPS-induced formation of MDA: 50%

## CNCCc1ccc(O)c(O)c1 [N-methyldopamine, N-methyldopamine (deoxyepinephrine)]
[2]; FIG. 10
  concentration from which inhibition of FeCl2-induced formation of MDA starts: 25 µM
  concentration reaching complete inhibition of FeCl2-induced formation of MDA: 200 µM
[2]; FIGS. 8-12
  effect on FeCl2-induced formation of MDA, in words: most prominent effect

## CC(=O)NCCc1ccc(O)c(O)c1 [N-acetyldopamine]
[3]; 1 hr incubation, FIG. 1
  concentration from which inhibition of LPS-induced formation of MDA starts: 50 µM
  concentration reaching complete inhibition of LPS-induced formation of MDA: 200 µM
[3]; FIGS. 1-2
  effect on LPS-induced lipid peroxidation (MDA formation), in words: inhibited LPS-induced formation of MDA in a dose-dependent manner

## COc1ccc2[nH]cc(CCNC(C)=O)c2c1 [Melatonin, melatonin]
[3]; FIG. 3
  concentration reaching statistically significant inhibition of LPS-induced lipid peroxidation: 800 µM
[4]
  effect on toxic effect of LPS: counteract the toxic effect of LPS
[5]
  effect on lethality: prevent lethality

## CC(=O)NCCc1c[nH]c2ccc(O)cc12 [NAS, N-acetylserotonin]
[6]
  protection against LPS-induced hypotensive shock: protects rats against LPS-induced hypotensive shock
[7]
  protection against LPS lethal effect: protects
